Experimental findings from patent US20260152503A1, “SPIROBICYCLIC COMPOUNDS” (ACERAND THERAPEUTICS (HONG KONG) LIMITED, priority 2022, published 2026) are described below.

A value given as a limit tells only on which side of the number the result lay.

Holding throughout (type): cell-based
The target in one assay is T1, FGFR3 (Homo sapiens, UniProt P22607).
T1 construct: RT112 (FGFR3 overexpression/FGFR3-TACC3 fusion); host or cells: RT112; the other entry of the earlier key: TACC3 (Q9Y6A5, Transforming acidic coiled-coil-containing protein 3)
Briefly: pERK potency assay (In Cell ELISA), RT112 cells. Particulars: RT112 (FGFR3 overexpression/FGFR3-TACC3 fusion) cells, 3 hours. The source says: (§1) The purpose of this assay is to measure the ability of test compounds to inhibit FGFR mediated downstream signaling cascades, i.e., ERK phosphorylation in cells with FGFR aberrations. FGFR aberrations become constitutively active and thus induces cascades of cellular signaling events that result in increased phosphorylation of ERK at Threonine 202 and Tyrosine 204 (pERK). The procedure called In Cell ELISA described below measures the level of cellular pERK in response to FGFR specific inhibitor compounds in FGFR aberrations of AN3CA (FGFR2/k310R, N549K), DMS114 (FGFR1 amplification), RT112 (FGFR3 overexpression/FGFR3-TACC3 fusion) and Hep3B (FGF19 amplification) cells. AN3CA, DMS114 and Hep3B cells are from ATCC. RT112 cells are from Sigma. DMS114 cells are grown and maintained using RPMI-1640 medium supplemented with 10% heat-inactivated fetal bovine serum. AN3CA, Hep3B and RT112 cells are grown and maintained using DMEM supplemented with 10% heat-inactivated fetal bovine serum. On the day before test compound addition, cells are plated in poly-D-lysine coated 96-well cell culture plates (Corning® BioCoat® Cat #356640) at 40000 cells/well/100 μL and grown overnight in a 37° C., 5% CO2 incubator. Test compounds are prepared with 4-fold serial dilutions in DMSO, with a top concentration of 10 μM. On the day of the assay, 50 μL of test compound diluted in media was added to each well of cell culture plate with the final concentration of compounds spanning from 0.000038 μM to 10 μM. After compound addition, cells are incubated for 3 hours at 37° C., 5% CO2 and then the culture medium is removed. Cells are fixed with 4% formaldehyde in phosphate-buffered saline (PBS) and incubated at RT for 20 min. The plate is then washed three times with PBST (PBS with 0.05% tween-20), followed by the incubation with 100 μL of pre-cooled methanol at −20° C. for 20 min. After incubation, methanol is removed, and the plate is washed once with PBST. Cells are permeabilized with 100 µL/well of 0.1% Triton X-100 in PBS at RT for 20 min and then quenched with quenching buffer (PBST containing 1% H2O2 and 0.1% sodium azide) for 20 min at RT with gentle shaking. After washing once with PBST, blocking buffer (250 ul/well, Pierce™ Protein-Free-PBS Blocking Buffer, Cat #37572) was then added to the cells for 1-h incubation at RT, followed by anti-pERK antibody (cell signaling, 1:1000 dilution in 5% BSA in PBST) incubation overnight at 4° C. and secondary antibody-HRP (Jackson immunoresearch, 1:3000 dilution in 5% BSA in PBST) incubation at RT for 1 h. PBST wash is carried out after each step three times. Before the addition of the substrate (Advansta ELISABright), the plate is washed with PBS twice to remove detergent residues. Cellular pERK level is determined using the microplate reader (Biotek Synergy H1) to detect the chemiluminescence signal. IC50 is determined by fitting a 4-parameter sigmoidal concentration-response model. FGFR wild type cells (H1975, PC-9 and AGS) are used to serve as negative control (FGFR selectivity) with the same assay procedures described above.

The next assay addresses T2, FGFR1 (Homo sapiens, UniProt P11362).
T2 construct: DMS114 (FGFR1 amplification); host or cells: DMS114
Briefly: pERK potency assay (In Cell ELISA), DMS114 cells. Particulars: DMS114 (FGFR1 amplification) cells, 3 hours.
Text: as §1

A further assay deals with T3, FGFR2 (Homo sapiens, UniProt P21802, K310R/N549K).
T3 construct: in FGFR aberrations of AN3CA (FGFR2/k310R, N549K); host or cells: AN3CA
T3 sequence (P21802 22-821 K310R/N549K): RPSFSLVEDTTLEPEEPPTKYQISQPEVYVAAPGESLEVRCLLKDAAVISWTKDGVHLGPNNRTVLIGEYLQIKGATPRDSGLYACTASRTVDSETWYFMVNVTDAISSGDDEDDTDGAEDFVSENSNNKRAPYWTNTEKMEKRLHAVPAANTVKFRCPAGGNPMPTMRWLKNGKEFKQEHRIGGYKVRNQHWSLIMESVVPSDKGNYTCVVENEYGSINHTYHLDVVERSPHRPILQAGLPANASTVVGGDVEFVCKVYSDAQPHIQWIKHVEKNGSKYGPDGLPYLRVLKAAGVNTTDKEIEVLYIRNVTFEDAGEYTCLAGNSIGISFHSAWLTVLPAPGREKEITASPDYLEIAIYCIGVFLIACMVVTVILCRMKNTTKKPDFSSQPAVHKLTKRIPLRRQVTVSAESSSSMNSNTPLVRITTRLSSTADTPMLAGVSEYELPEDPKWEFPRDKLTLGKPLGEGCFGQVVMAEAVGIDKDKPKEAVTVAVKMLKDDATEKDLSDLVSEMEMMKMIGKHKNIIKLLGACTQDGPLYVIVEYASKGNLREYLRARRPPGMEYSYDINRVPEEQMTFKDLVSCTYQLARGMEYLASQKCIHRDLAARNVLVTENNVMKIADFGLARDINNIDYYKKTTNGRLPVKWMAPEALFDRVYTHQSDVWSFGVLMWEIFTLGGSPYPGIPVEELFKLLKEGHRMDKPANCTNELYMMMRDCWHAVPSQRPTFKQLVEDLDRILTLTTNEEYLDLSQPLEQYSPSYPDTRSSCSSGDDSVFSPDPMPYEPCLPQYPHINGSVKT
Nature of the assay: pERK potency assay (In Cell ELISA), AN3CA cells. Particulars: for IC50: pERK, AN3CA (FGFR2/k310R, N549K) cells, 3 hours; for FGFR1 IC50/FGFR2 IC50 / FGFR3 IC50/FGFR2 IC50: selectivity ratio, pERK potency; for FGFR1 IC50/FGFR2 IC50: FGFR2 relative to FGFR1; for FGFR3 IC50/FGFR2 IC50: FGFR2 relative to FGFR3.
Text: as §1
For orientation: In an ELISA, binding on a coated surface is turned into a signal by an enzyme label.

T2 sequence (P11362 22-822): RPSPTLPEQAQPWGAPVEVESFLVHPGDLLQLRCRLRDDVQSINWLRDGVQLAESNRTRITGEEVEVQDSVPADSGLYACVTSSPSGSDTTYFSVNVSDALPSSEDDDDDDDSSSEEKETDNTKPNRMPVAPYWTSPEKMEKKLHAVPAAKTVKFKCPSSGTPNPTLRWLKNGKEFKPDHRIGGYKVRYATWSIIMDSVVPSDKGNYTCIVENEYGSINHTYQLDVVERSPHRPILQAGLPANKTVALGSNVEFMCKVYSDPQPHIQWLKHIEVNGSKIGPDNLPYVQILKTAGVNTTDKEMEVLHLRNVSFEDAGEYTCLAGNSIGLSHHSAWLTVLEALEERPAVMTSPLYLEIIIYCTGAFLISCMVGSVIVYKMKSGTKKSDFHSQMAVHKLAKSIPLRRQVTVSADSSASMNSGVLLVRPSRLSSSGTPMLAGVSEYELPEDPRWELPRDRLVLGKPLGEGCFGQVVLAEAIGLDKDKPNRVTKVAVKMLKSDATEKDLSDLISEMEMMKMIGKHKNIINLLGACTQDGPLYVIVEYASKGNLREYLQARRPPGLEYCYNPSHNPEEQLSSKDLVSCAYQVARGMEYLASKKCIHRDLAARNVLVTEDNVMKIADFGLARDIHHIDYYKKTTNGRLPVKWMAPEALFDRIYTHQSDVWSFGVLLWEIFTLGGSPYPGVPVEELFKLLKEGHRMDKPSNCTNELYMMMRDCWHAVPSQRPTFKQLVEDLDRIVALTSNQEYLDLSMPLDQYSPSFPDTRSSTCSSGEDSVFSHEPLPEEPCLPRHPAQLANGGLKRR

By IC50 is commonly meant the concentration that inhibits the measured activity by half. As for `C=CC(=O)N1CC2(CC=C(c3c(-c4ccc(Oc5ncccn5)cc4)c4c(N)ncnc4n3C)CC2)C1` [Example 1, 1-(7-(4-amino-7-methyl-5-(4-(pyrimidin-2-yloxy)phenyl)-7H-pyrrolo[2,3-d]pyrimidin-6-yl)-2-azaspiro[3.5]non-6-en-2-yl)prop-2-en-1-one], the IC50 at FGFR3 was > 100 nM; on FGFR1, > 100 nM; at FGFR2, 1 to 10 nM. In addition, the “FGFR1 IC50/FGFR2 IC50” value on FGFR2 is “I (a selectivity ratio greater than 1000 but less than or equal to 2000)”. At FGFR2, the “FGFR3 IC50/FGFR2 IC50” value is on record as “F (a selectivity ratio greater than 50 but less than or equal to 150)”.

With `C=CC(=O)N1CC2(CC(c3c(-c4ccc(Oc5ncccn5)cc4)c4c(N)ncnc4n3C)C2)C1` [Example 3, 1-(6-(4-amino-7-methyl-5-(4-(pyrimidin-2-yloxy)phenyl)-7H-pyrrolo[2,3-d]pyrimidin-6-yl)-2-azaspiro[3.3]heptan-2-yl)prop-2-en-1-one], the IC50 on FGFR3, on FGFR1 and on FGFR2 was > 100 nM each time.

Take `C=CC(=O)N1CCC2(CCC(c3c(-c4ccc(Oc5ncccn5)cc4)c4c(N)ncnc4n3C)CC2)CC1` [Example 6, 1-(9-(4-amino-7-methyl-5-(4-(pyrimidin-2-yloxy)phenyl)-7H-pyrrolo[2,3-d]pyrimidin-6-yl)-3-azaspiro[5.5]undecan-3-yl)prop-2-en-1-one]: the 50% inhibitory concentration (IC50) on FGFR3, at FGFR1 and on FGFR2 was > 100 nM throughout.

`C=CC(=O)NC1CC2(CC=C(c3c(-c4ccc(OC)cc4)c4c(N)ncnc4n3C)CC2)C1` (stereo not drawn) [Example 7, N-(7-(4-amino-5-(4-methoxyphenyl)-7-methyl-7H-pyrrolo[2,3-d]pyrimidin-6-yl)spiro[3.5]non-6-en-2-yl)acrylamide]: the figures for the half-inhibitory concentration (IC50) at FGFR3, at FGFR1 and on FGFR2 were > 100 nM, > 100 nM and 10 to 30 nM, respectively.

Consider `C=CC(=O)NC1CC2(CC=C(c3c(-c4ccc(Oc5ncccn5)cc4)c4c(N)ncnc4n3C)CC2)C1` (stereo not drawn) [Example 9, N-(7-(4-amino-7-methyl-5-(4-(pyrimidin-2-yloxy)phenyl)-7H-pyrrolo[2,3-d]pyrimidin-6-yl)spiro[3.5]non-6-en-2-yl)acrylamide], for which the results for the IC50 on FGFR3, on FGFR1 and at FGFR2 were > 100 nM, > 100 nM and 10 to 30 nM, respectively. Also, on FGFR2, the “FGFR1 IC50/FGFR2 IC50” value is “F (a selectivity ratio greater than 50 but less than or equal to 150)”. Moreover, the “FGFR3 IC50/FGFR2 IC50” value at FGFR2 (given as numeric bound) is listed as <50.

For the molecule `C=CC(=O)N1CCC2(CC=C(c3c(-c4cccnc4)c4c(N)ncnc4n3C)CC2)CC1` [Example 12, 1-(9-(4-amino-7-methyl-5-(pyridin-3-yl)-7H-pyrrolo[2,3-d]pyrimidin-6-yl)-3-azaspiro[5.5]undec-8-en-3-yl)prop-2-en-1-one], the concentration for half-maximal inhibition (IC50) at FGFR3 was > 100 nM. For the same molecule, the concentration for half-maximal inhibition (IC50) at FGFR1 is > 100 nM. Also, at FGFR2, the IC50 was in the range of 10 to 30 nM, the “FGFR1 IC50/FGFR2 IC50” value is reported as “G (a selectivity ratio greater than 150 but less than or equal to 500)” and the “FGFR3 IC50/FGFR2 IC50” value is recorded as “H (a selectivity ratio greater than 500 but less than or equal to 1000)”.

In the case of `C=CC(=O)N1CCC2(CC=C(c3c(-c4ccnn4C)c4c(N)ncnc4n3C)CC2)CC1` [Example 13, 1-(9-(4-amino-7-methyl-5-(1-methyl-1H-pyrazol-5-yl)-7H-pyrrolo[2,3-d]pyrimidin-6-yl)-3-azaspiro[5.5]undec-8-en-3-yl)prop-2-en-1-one], the half-inhibitory concentration (IC50) on FGFR3, on FGFR1 and on FGFR2 was > 100 nM each time.

`C=CC(=O)N1CCC2(CC=C(c3c(C(C)C)c4c(N)ncnc4n3C)CC2)CC1` [Example 15, 1-(9-(4-amino-5-isopropyl-7-methyl-7H-pyrrolo[2,3-d]pyrimidin-6-yl)-3-azaspiro[5.5]undec-8-en-3-yl)prop-2-en-1-one]: the half-maximal inhibitory concentration (IC50) at FGFR3 was > 100 nM; at FGFR1 it was > 100 nM; at FGFR2, 10 to 30 nM. Besides, the “FGFR3 IC50/FGFR2 IC50” value on FGFR2 is reported as “F (a selectivity ratio greater than 50 but less than or equal to 150)”.

Turning to `C=CC(=O)N1CCC2(CC=C(c3c(-c4ccc(OCCN5CCCC5)cc4)c4c(N)ncnc4n3C)CC2)CC1` [Example 20, 1-(9-(4-amino-7-methyl-5-(4-(2-(pyrrolidin-1-yl)ethoxy)phenyl)-7H-pyrrolo[2,3-d]pyrimidin-6-yl)-3-azaspiro[5.5]undec-8-en-3-yl)prop-2-en-1-one], the results for the IC50 on FGFR3, on FGFR1 and at FGFR2 were > 100 nM, > 100 nM and 30 to 100 nM, respectively. For the same molecule, the “FGFR3 IC50/FGFR2 IC50” value on FGFR2 is reported as “F (a selectivity ratio greater than 50 but less than or equal to 150)”.

As to `C=CC(=O)N1CCC2(CC=C(c3c(-c4ccc(OC5CC(C)C5)nc4)c4c(N)ncnc4n3C)CC2)CC1` (stereo not drawn) [Example 25, 1-(9-(4-amino-7-methyl-5-(6-(3-methylcyclobutoxy)pyridin-3-yl)-7H-pyrrolo[2,3-d]pyrimidin-6-yl)-3-azaspiro[5.5]undec-8-en-3-yl)prop-2-en-1-one], the values for the IC50 on FGFR3, on FGFR1 and at FGFR2 were > 100 nM, 30 to 100 nM and 1 to 10 nM, respectively. Further, the “FGFR3 IC50/FGFR2 IC50” value on FGFR2 is “F (a selectivity ratio greater than 50 but less than or equal to 150)”.

Consider `C=CC(=O)N1CCC2(CC=C(c3c(-c4cncc(F)c4)c4c(N)ncnc4n3C)CC2)CC1` [Example 27, 1-(9-(4-amino-5-(5-fluoropyridin-3-yl)-7-methyl-7H-pyrrolo[2,3-d]pyrimidin-6-yl)-3-azaspiro[5.5]undec-8-en-3-yl)prop-2-en-1-one], for which the IC50 at FGFR3 is > 100 nM. Further, the IC50 on FGFR1 is > 100 nM. In addition, at FGFR2, the IC50 is 1 to 10 nM, the “FGFR1 IC50/FGFR2 IC50” value is given as “F (a selectivity ratio greater than 50 but less than or equal to 150)” and the “FGFR3 IC50/FGFR2 IC50” value is recorded as “H (a selectivity ratio greater than 500 but less than or equal to 1000)”.

For the molecule `C=CC(=O)N1CCC2(CC=C(c3c(-c4ccc(OC)nc4)c4c(N)ncnc4n3C)CC2)CC1` [Example 30, 1-(9-(4-amino-5-(6-methoxypyridin-3-yl)-7-methyl-7H-pyrrolo[2,3-d]pyrimidin-6-yl)-3-azaspiro[5.5]undec-8-en-3-yl)prop-2-en-1-one], on FGFR3, the IC50 is > 100 nM. The half-maximal inhibitory concentration (IC50) on FGFR1 is > 100 nM. Also, at FGFR2, the IC50 was ≤ 1 nM, the “FGFR1 IC50/FGFR2 IC50” value is “G (a selectivity ratio greater than 150 but less than or equal to 500)” and the “FGFR3 IC50/FGFR2 IC50” value is “H (a selectivity ratio greater than 500 but less than or equal to 1000)”.

For the molecule `C=CC(=O)N1CCC2(CC=C(c3c(-c4ccnnc4)c4c(N)ncnc4n3C)CC2)CC1` [Example 31, 1-(9-(4-amino-7-methyl-5-(pyridazin-4-yl)-7H-pyrrolo[2,3-d]pyrimidin-6-yl)-3-azaspiro[5.5]undec-8-en-3-yl)prop-2-en-1-one], the concentration for half-maximal inhibition (IC50) at FGFR3, on FGFR1 and on FGFR2 was > 100 nM in each case.

As for `C=CC(=O)N1CCC2(CC=C(c3c(-c4cncnc4)c4c(N)ncnc4n3C)CC2)CC1` [Example 32, 1-(9-(4-amino-7-methyl-5-(pyrimidin-5-yl)-7H-pyrrolo[2,3-d]pyrimidin-6-yl)-3-azaspiro[5.5]undec-8-en-3-yl)prop-2-en-1-one], the IC50 on FGFR3 is > 100 nM. The IC50 at FGFR1 was > 100 nM. Also, at FGFR2, the IC50 fell in the range of 30 to 100 nM, the “FGFR1 IC50/FGFR2 IC50” value is given as “F (a selectivity ratio greater than 50 but less than or equal to 150)” and the “FGFR3 IC50/FGFR2 IC50” value is listed as “G (a selectivity ratio greater than 150 but less than or equal to 500)”.
